# System: Fe-ADP-Ascorbate induced lipid peroxidation (LPO) in rat brain
# Assay: Inhibition of Fe-ADP-ascorbate induced lipid peroxidation (LPO) in rat brain homogenate
# Assay type: biochemical, Albino rats (Sprague Dawley strain)
# Conditions: 37° C., 30 minutes
# Experimental: Inhibition of Fe-ADP-Ascorbate Induced Lipid Peroxidation (LPO) in Rat Brain by DBP and DCPs
# Albino rats (Sprague Dawley strain) were sacrificed by cervical dislocation and decapitation. Brains were dissected out and 10% w/v homogenate was prepared in 0.15 M KCl. The brain homogenate was centrifuged at 1500 rpm for 10 minutes and the supernatant was used for the study. The incubation mixture contained in a final volume of 1 ml., brain homogenate (500 μl), distilled water (100 μl) or test compounds dissolved in solvents at different concentrations (10 to 100 μg/ml of the final volume). Peroxidation was initiated by adding FeCl3 (100 μM), ADP (1 mM) and ascorbate (100 μM) to give the final concentration stated. After incubating at 37° C. for 30 minutes, the reaction was stopped by adding acetic acid buffer (1.5 ml, pH 3.5) and thiobarbituric acid solution (1.5 ml, pH 7.4) to 1 ml of LPO mixture. The reaction mixture was heated at 85° C. for 30 minutes, cooled, centrifuged (2000 rpm for 10 minutes) and the absorbance of the supernatant was measured at 532 nm. IC50 values were calculated in the usual way by plotting the concentration of the test compounds versus percent inhibition of LPO.
row,IC50 (effect on LPO) [µg/mL],SMILES
1,30,"O=c1oc2cc(O)ccc2c2ccc(O)cc12 [3,8-Dihydroxydibenzo-alpha-pyrone]"
2,70,O=C1O[C@H]([C@@H](O)CO)C(O)=C1O [Ascorbic acid]
3,56,CC(=O)Oc1c(C)c(C)c2c(c1C)CCC(C)(CCC[C@H](C)CCC[C@H](C)CCCC(C)C)O2 (stereo partly drawn) [Vitamin E acetate]

# From patent US20050245434A1, “Oxygenated dibenzo-alpha-pyrone chromoproteins” (priority 2004, published 2005)
